Measured values from ChEMBL document CHEMBL5500355, “Quantum chemistry calculation-aided discovery of potent small-molecule mimics of glutathione peroxidases for the treatment of cisplatin-induced hearing loss” (Eur J Med Chem, 2024).
≈ marks a conversion by molar mass, not a printed value. Calls of active or inactive are those of the source.

Assays:
[1] = Glutathione peroxidase like activity of compound assessed as fold increase by measuring reduction in NADPH level at 100 uM by microplate reader assay relative to SPI-1005; format: ADME
[2] = Glutathione peroxidase like activity of compound assessed as fold increase by measuring reduction in NADPH level at 10 uM by microplate reader assay relative to SPI-1005; format: ADME
Mus musculus [3] = species: Mus musculus; assay: Inhibition of cisplatin induced hair loss in neonatal C57BL/6 mouse cochlear explants assessed as reduction in cochlear hair cells loss in middle turns pretreated with compound for 2 hrs followed by cisplatin addition and measured after 24 hrs post cisplatin treatment; format: functional; conditions: Cochlea, time 26.0 hrs
Mus musculus [4] = species: Mus musculus; assay: Inhibition of cisplatin induced hair loss in neonatal C57BL/6 mouse cochlear explants assessed as reduction in cochlear hair cells loss in base turns pretreated with compound for 2 hrs followed by cisplatin addition and measured after 24 hrs post cisplatin treatment; format: functional; conditions: Cochlea, time 26.0 hrs
Mus musculus [5] = species: Mus musculus; assay: Inhibition of cisplatin induced hair loss in neonatal C57BL/6 mouse cochlear explants assessed as reduction in cochlear hair cells loss in apex turns pretreated with compound for 2 hrs followed by cisplatin addition and measured after 24 hrs post cisplatin treatment; format: functional; conditions: Cochlea, time 26.0 hrs
Mus musculus [6] = assay: Protection against cisplatin induced oxidative stress in C57BL/6 mouse assessed as reduction in IL-6 level at 80 mg/kg, po administered daily for one week with simultaneous cisplatin addition on day 3 and 7 and measured after 1 week post last cisplatin treatment by ELISA; format: functional, organism-based; conditions: time 2.0 weeks
Mus musculus [7] = species: Mus musculus; assay: Inhibition of cisplatin induced apoptosis in neonatal C57BL/6 mouse cochlear explants assessed as reduction in cleaved caspase 3 positive hair cells in basal turn of cochlea at 100 uM by parvalbumin staining based assay; format: functional
Mus musculus [8] = assay: Prevention of cisplatin induced hair loss in C57BL/6 mouse at 80 mg/kg, po administered daily for one week with simultaneous cisplatin addition on day 3 and 7 and measured after 1 week post last cisplatin treatment by myosin 7a-staining based assay; format: functional, organism-based; conditions: time 2.0 weeks
Mus musculus [9] = species: Mus musculus; assay: Inhibition of cisplatin induced ferroptosis in neonatal C57BL/6 mouse cochlear explants assessed as reduction in mitochondrial iron accumulation at 100 uM by Mito-FerroGreen staining based confocal microscopy analysis; format: functional, organism-based; conditions: Cochlea
Mus musculus [10] = assay: Protection against cisplatin induced oxidative stress in C57BL/6 mouse assessed as increase in SOD level at 80 mg/kg, po administered daily for one week with simultaneous cisplatin addition on day 3 and 7 and measured after 1 week post last cisplatin treatment by ELISA; format: functional, organism-based; conditions: time 2.0 weeks
Tu 686 = assay: Effect on cisplatin induced antitumor activity in human Tu 686 cells by CCK8 assay; format: functional, cell-based
[11] = Solubility of compound in water by liquid chromatography method; format: physicochemical
Mus musculus [12] = species: Mus musculus; assay: Inhibition of cisplatin induced oxidative stress in neonatal C57BL/6 mouse cochlear explants at 100 uM by MitoSOX Red staining based confocal fluorescence microscope analysis; format: functional, organism-based; conditions: Cochlea
6-10B = assay: Effect on cisplatin induced antitumor activity in human 6-10B cells by CCK8 assay; format: functional, cell-based
Mus musculus [13] = assay: Protection against cisplatin induced oxidative stress in C57BL/6 mouse assessed as reduction in MDA level at 80 mg/kg, po administered daily for one week with simultaneous cisplatin addition on day 3 and 7 and measured after 1 week post last cisplatin treatment by ELISA; format: functional, organism-based; conditions: time 2.0 weeks
Mus musculus [14] = assay: Prevention of cisplatin induced hearing loss in C57BL/6 mouse assessed as reduction in ABR threshold increase at 80 mg/kg, po administered daily for one week with simultaneous cisplatin addition on day 3 and 7 and measured after 1 week post last cisplatin treatment; format: functional, organism-based; conditions: time 2.0 weeks
HeLa = assay: Effect on cisplatin induced antitumor activity in human HeLa cells by CCK8 assay; format: functional, cell-based
Mus musculus [15] = species: Mus musculus; assay: Inhibition of cisplatin induced apoptosis in neonatal C57BL/6 mouse cochlear explants assessed as reduction in cleaved caspase 3 positive hair cells in apex turn of cochlea at 100 uM by parvalbumin staining based assay; format: functional
Mus musculus [16] = assay: Protection against cisplatin induced oxidative stress in C57BL/6 mouse assessed as reduction in TNF-alpha level at 80 mg/kg, po administered daily for one week with simultaneous cisplatin addition on day 3 and 7 and measured after 1 week post last cisplatin treatment by ELISA; format: functional, organism-based; conditions: time 2.0 weeks
Mus musculus [17] = species: Mus musculus; assay: Inhibition of cisplatin induced apoptosis in neonatal C57BL/6 mouse cochlear explants assessed as reduction in cleaved caspase 3 positive hair cells in middle turn of cochlea at 100 uM by parvalbumin staining based assay; format: functional

SMILES | fold change (FC) [1] | fold change (FC) [2] | also measured
COc1cccc(-n2[se]c3ccccc3c2=O)c1 | 1 | 0.7 | –
O=c1c2cccc(Br)c2[se]n1-c1ccccn1 | 4.7 | 9.1 | –
O=c1c2cccc(Br)c2[se]n1-c1cccnc1 | 3.5 | 9.8 | inhibition (Mus musculus [3]): Active; inhibition (Mus musculus [4]): Active; inhibition (Mus musculus [5]): Active
COc1cccc2c(=O)n(-c3cccnc3)[se]c12 | 3.5 | 7.7 | inhibition (Mus musculus [3]): Active; Activity (Mus musculus [6]): Active; inhibition (Mus musculus [7]): Active; Activity (Mus musculus [8]): Active; inhibition (Mus musculus [9]): Active; inhibition (Mus musculus [4]): Active; Activity (Mus musculus [10]): Active; Activity (Tu 686): inactive; solubility [11]: 1800 µg/mL (≈ 5900 µM); inhibition (Mus musculus [12]): Active; Activity (6-10B): inactive; inhibition (Mus musculus [5]): Active; Activity (Mus musculus [13]): Active; Activity (Mus musculus [14]): Active; Activity (HeLa): inactive; inhibition (Mus musculus [15]): Active; Activity (Mus musculus [16]): Active; inhibition (Mus musculus [17]): Active
Cc1cccc2c(=O)n(-c3ccccc3)[se]c12 | 2.5 | 4.6 | –
O=c1c2cccc(Cl)c2[se]n1-c1ccccc1 | 3.5 | 8.6 | –
COc1cccc2c(=O)n(-c3ccccc3)[se]c12 | 4.2 | 7.4 | inhibition (Mus musculus [3]): Active; inhibition (Mus musculus [4]): Active; solubility [11]: 2.5 µg/mL (≈ 8.22 µM); inhibition (Mus musculus [5]): Active
O=c1c2cccc(F)c2[se]n1-c1ccccc1 | 2.5 | 4.5 | –
COc1cccc2c(=O)n(-c3ccccn3)[se]c12 | 3.8 | 6.9 | –
COc1ccc2c(=O)n(-c3ccccc3)[se]c2c1 | 0.5 | 0.2 | –
O=c1c2cccc(Br)c2[se]n1-c1ccncc1 | 3.4 | 7.7 | –
O=c1c2cc(Br)ccc2[se]n1-c1ccccc1 | 1.1 | 0.5 | –
COc1cccc2[se]n(-c3ccccc3)c(=O)c12 | 1.2 | 1.8 | –
COc1ccc2[se]n(-c3ccccc3)c(=O)c2c1 | 0.8 | 0.5 | –
O=c1c2cccc(Br)c2[se]n1-c1ccccc1 | 3.5 | 8.8 | inhibition (Mus musculus [3]): Active; inhibition (Mus musculus [4]): Active; inhibition (Mus musculus [5]): Active
COc1cccc2c(=O)n(-c3ccncc3)[se]c12 | 3 | 7.4 | –
O=c1c2ccc(Br)cc2[se]n1-c1ccccc1 | 0.6 | 0.7 | –
O=c1c2ccccc2[se]n1-c1ccccc1 | – | – | inhibition (Mus musculus [3]): Active; Activity (Mus musculus [6]): Active; Activity (Mus musculus [8]): Active; inhibition (Mus musculus [9]): Active; inhibition (Mus musculus [4]): Active; Activity (Mus musculus [10]): Active; inhibition (Mus musculus [5]): Active; Activity (Mus musculus [13]): Active; Activity (Mus musculus [14]): Active; Activity (Mus musculus [16]): Active
O=c1c2cccc([N+](=O)[O-])c2[se]n1-c1ccccc1 | 3.3 | 7.2 | –
COc1ccc(-n2[se]c3ccccc3c2=O)cc1 | 1.1 | 1.3 | –
COc1ccccc1-n1[se]c2ccccc2c1=O | 1.1 | 0.9 | –
